Results: patent publication US8871815B2, “Therapeutic compounds” (Signature Therapeutics, Inc., priority 2007, dated 2014)
pEC50: −log10 of the molar value. Where two headings read alike, the source gives them in different places.

Legend:
[1] = system: GABAA receptor; assay: Rat hippocampal brain slice electrophysiology assay; type: cell-based; conditions: in the presence of EC20 of muscimol (2 μM); CA1 population spike; read-out: EC50, potentiation of the action of agonists at the GABAA receptor
Experimental: Rat hippocampal slices were prepared as follows: Male Wistar rats (100-125 g) were anesthetized with isoflurane and decapitated, the brains quickly removed, collected, blocked, and cut using a vibratome (OTS-4000, Electron Microscope Sciences) into 400 micron (μm) transverse sections. Slices were transferred to a warmed (33° C.), submerged tissue-recording chamber perfused at 2.5-3 ml/min with modified artificial cerebrospinal fluid (120 mM sodium chloride, 3.5 mM, potassium chloride, 2.5 mM calcium chloride, 1.3 mM magnesium chloride, 1.25 mM sodium phosphate, 26 mM sodium carbonate, 10 mM glucose, saturated with 95% oxygen, pH 7.4). […]
Electrophysiology testing was accomplished as follows: A glass rod electrode (1-2 μM tip diameter) was filled with 3M sodium chloride (NaCl) and placed in the CA1 pyramidal cell layer of hippocampal slices. […] Population responses of the CA1 pyramidal cells were recorded with an Axoprobe-1A (Axon Instruments, Molecular Devices, Sunnyvale, Calif.). pCLAMP 8.2 (Axon Instruments) was used for acquiring the data, and Clampfit (Axon Instruments) was used for analysis. […] Peak to peak amplitude of the population response from each stimulus was measured as an indicator of cell excitability. […]
Data were acquired and analyzed using Clampfit and Excel (Microsoft), and reported as mean and individual values.

[2] = molecular target: T1, phosphodiesterase 2 (PDE2) (Homo sapiens, UniProt O00408); assay: Cerep Diversity Profile: enzymes, PDE2; type: biochemical; conditions: tested at 10 μM; read-out: inhibition of control binding, PDE2
T1 construct: Cerep, Inc

[3] = system: rats; assay: Separate rat study, bolus IV, 1% in cremaphor, sleep time; type: in vivo; conditions: 7 mg/kg bolus IV, rats
[4] = system: Beagle dogs; assay: Hemodynamic effects (blood pressure) in beagle dogs, bolus IV; type: in vivo, dog; conditions: 4 min after administration
Experimental: The study was a crossover design. […] The MTD was defined as the dose that reduced mean arterial blood pressure (MAP) by 50% or to less than 50 millimeters of mercury (mmHg or mm Hg). All animals received supplemental oxygen and, if needed, ventilatory support after 4 min of apnea.
Hemodynamic data, such as mean arterial pressure (MAP), were recorded at baseline, 1, 2, 4, 8, 15, 20 and 30 min. Compound 1 was administered at 5, 10, 15 and 30 mg/kg to 3, 6, 6 and 3 dogs respectively. […] Data were analyzed with a 2-way ANOVA followed by t-test with Bonferroni correction for multiple comparisons.

[5] = system: mongrel dogs; assay: Anesthetic and hemodynamic effects in chronically instrumented mongrel dogs, total intravenous anesthesia; type: in vivo, dog
Experimental: Assessments included hemodynamic performance parameters such as blood pressure, heart rate, and cardiac output as well as clinical chemistry parameters and EEG analysis.
General anesthesia was induced in the dogs by IV administration of 7 mg/kg […], and the dogs were tracheally intubated and mechanically ventilated. General anesthesia was maintained using 2.2% end-tidal sevoflurane in oxygen. A thoracotomy was performed at the fifth left intercostal space, and heparin-filled catheters were placed in the proximal descending thoracic aorta (P50 pressure transducer Gould, Oxnard, Calif.), and in the right and left atria to provide IV access. An ultrasonic transit-time flow probe (T108, Transonic Systems, Ithaca, N.Y.) was placed around the ascending thoracic aorta. A […] Doppler flow probe (Model HDP-20-3.5, Triton Surgical Technologies, San Diego, Calif.) was placed around the left anterior descending coronary artery. Six MHz sonomicrometer crystals (Hartley, Houston, Tex.) were implanted in the subendocardium. A high fidelity micromanometer (P7, Konigsberg Instruments, Pasadena, Calif.) was inserted into the left ventricle. […]
The dogs were fasted overnight. […] EEG was recorded continuously during the experiment. Arterial blood gas and chemistry measures included pH, pO2, sO2, pCO2, tCO2, carbonate, potassium, sodium, and base excess, and were measured immediately following blood draws using a blood gas and chemistry analyzer (ABL-505, Radiometer, Copenhagen). […] Following stabilization, baseline measurements of EEG, hemodynamics, ECG, and blood gases were recorded. Blood samples were drawn for PK and clinical chemistry, and pressure volume loops were generated and data recorded.
Following induction, the dogs were tracheally intubated, and mechanically ventilated using 50% oxygen in nitrogen throughout the subsequent drug infusion and recovery periods. […] MAP was monitored continuously, and dosing was discontinued immediately if MAP decreased below 50 mmHg at any time or if the heart rate increased over 200 beats per minute. […]

[6] = system: pigs; assay: in vivo; conditions: 384 μg per kg per min, pigs
Experimental: Experiments were performed on commercial farm-bred swine of either sex (mean weight 33.6 kg). Anesthesia was induced with isoflurane. Intravascular access was obtained from an ear vein. Each pig was intubated and mechanically ventilated. Tissue oxygenation was monitored using continuous pulse oximetry placed on the tongue. Ventilation was monitored using an inspired/expired gas analyzer that measured oxygen, carbon dioxide, and potent inhalation agent concentrations. Ventilator settings were adjusted as needed to maintain steady state.
ECG was monitored throughout the study. Arterial blood pressure was monitored through the cannulated left femoral artery. MAP, systolic and diastolic arterial pressures and heart rate were collected every 5 seconds. An internal jugular vein was cannulated with a pulmonary artery catheter for thermodilution estimates of cardiac output and blood temperature. Body temperature was maintained at 37° C. Instrumentation for EEG monitoring was accomplished using an adhesive electrode array over the fronto-occipital regions (Aspect Medical. Norwood, Mass., USA).
Metabolic and hemodynamic parameters for each group were compared at multiple time points using an unpaired two-tailed Student t test. To account for multiple comparisons and maintain the probability of a type I error below 0.05, P values less than 0.025 were considered significant.

[7] = system: Beagle dogs; conditions: dogs

T1 sequence (O00408 whole entry): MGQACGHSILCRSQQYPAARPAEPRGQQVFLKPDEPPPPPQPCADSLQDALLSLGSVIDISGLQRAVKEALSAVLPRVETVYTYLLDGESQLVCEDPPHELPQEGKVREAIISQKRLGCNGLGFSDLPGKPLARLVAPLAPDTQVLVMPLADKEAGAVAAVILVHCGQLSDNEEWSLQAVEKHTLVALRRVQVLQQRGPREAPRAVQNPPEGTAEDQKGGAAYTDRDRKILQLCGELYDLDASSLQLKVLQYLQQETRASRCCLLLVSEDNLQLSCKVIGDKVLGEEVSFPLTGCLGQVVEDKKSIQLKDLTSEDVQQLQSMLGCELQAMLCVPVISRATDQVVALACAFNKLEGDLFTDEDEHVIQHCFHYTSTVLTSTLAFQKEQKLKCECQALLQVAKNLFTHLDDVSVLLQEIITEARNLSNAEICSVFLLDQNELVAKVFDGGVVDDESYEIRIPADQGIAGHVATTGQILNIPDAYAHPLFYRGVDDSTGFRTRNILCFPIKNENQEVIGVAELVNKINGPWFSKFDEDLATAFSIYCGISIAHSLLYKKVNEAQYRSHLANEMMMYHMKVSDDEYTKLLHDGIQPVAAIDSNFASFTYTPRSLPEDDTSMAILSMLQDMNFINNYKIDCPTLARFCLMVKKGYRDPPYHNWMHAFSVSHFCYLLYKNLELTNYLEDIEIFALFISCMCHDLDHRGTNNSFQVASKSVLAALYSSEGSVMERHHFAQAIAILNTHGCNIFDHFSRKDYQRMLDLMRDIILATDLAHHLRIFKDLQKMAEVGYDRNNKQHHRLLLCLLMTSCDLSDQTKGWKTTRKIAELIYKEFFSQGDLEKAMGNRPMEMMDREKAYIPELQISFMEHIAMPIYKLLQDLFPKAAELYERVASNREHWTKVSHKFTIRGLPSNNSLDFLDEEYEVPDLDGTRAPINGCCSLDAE

CC[C@@H](C)c1cccc([C@H](C)CC)c1O [Compound 1]
pEC50 [1]: 5.60
inhibition at 10 µM [2]: > 20%
Sleep Time (duration of anesthesia) [3]: 23 min
MAP % change from baseline ([4]; 10 mg/kg bolus IV): +11%
MAP % change from baseline ([4]; 15 mg/kg bolus IV): −25%
MAP % change from baseline ([4]; 30 mg/kg bolus IV): −41%
MAP and heart rate results compared to propofol [5]: no statistically significant differences
Cardiac output versus baseline ([5]; IV bolus then stepwise IV infusions 0.25-2.0 mg/kg/min): no statistically significant reduction
IV infusion time producing maximal suppression of BIS [6]: 14.7 ± 3.8 min
duration of anesthesia (sleep time) ([7]; 5 mg/kg bolus IV): 24 min
duration of anesthesia (sleep time) ([7]; 10 mg/kg bolus IV): 43 min
duration of anesthesia (sleep time) ([7]; 15 mg/kg bolus IV): 77 min
duration of anesthesia (sleep time) ([7]; 30 mg/kg bolus IV): 105 min
